Assay results reported in PMC12774351, “A lignan compound regulates LPS modifications via PmrA/B signaling cascades to potentiate colistin efficacy in vivo” (PLOS Pathogens, 2025).
pKd: −log10 of the molar value.

Molecular target: T1, PmrA (Salmonella enterica, UniProt A0A0F6BAF1)
T1 construct: gene basR
Test: isothermal titration calorimetry
Type: binding

T1 sequence (A0A0F6BAF1 entry or part of it): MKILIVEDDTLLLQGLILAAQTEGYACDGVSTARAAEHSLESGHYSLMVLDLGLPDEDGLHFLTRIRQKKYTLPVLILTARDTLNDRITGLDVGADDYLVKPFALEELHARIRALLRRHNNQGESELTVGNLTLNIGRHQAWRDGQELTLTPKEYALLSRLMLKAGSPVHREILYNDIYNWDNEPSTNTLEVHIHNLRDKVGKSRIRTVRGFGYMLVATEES

Compound: C=CCc1ccc(O)c(-c2cc(CC=C)ccc2O)c1 [magnolol]
- pKd: 5.70
